What was measured:
PARP7 = target: T1, PARP7 (Homo sapiens, UniProt Q7Z3E1); assay: PARP7 inhibitory activity assay (histone-coated 384-well plate, chemiluminescence); assay type: biochemical
T1 construct: purchased BPS 80527
T1 sequence (Q7Z3E1 1-657): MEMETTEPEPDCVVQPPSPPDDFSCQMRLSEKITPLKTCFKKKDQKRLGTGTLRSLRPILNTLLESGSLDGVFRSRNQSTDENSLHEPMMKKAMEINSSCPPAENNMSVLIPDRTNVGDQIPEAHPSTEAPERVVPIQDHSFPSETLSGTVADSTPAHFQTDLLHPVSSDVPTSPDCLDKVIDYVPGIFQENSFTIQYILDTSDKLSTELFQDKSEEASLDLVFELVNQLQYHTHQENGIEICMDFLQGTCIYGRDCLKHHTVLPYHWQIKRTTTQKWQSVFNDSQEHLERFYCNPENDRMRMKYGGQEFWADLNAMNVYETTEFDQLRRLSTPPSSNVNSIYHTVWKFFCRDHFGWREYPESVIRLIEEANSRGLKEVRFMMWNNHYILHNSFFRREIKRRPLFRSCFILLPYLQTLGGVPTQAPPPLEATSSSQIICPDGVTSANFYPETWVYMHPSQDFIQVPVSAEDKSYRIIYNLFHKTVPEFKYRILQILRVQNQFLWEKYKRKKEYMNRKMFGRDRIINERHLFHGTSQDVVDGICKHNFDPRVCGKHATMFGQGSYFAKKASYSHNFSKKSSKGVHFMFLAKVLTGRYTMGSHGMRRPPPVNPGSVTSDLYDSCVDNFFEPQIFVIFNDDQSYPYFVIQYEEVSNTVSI
Text: Inhibition rate (%) calculation formula: […]

[1] = Liver microsomal stability study, human; assay type: in vitro ADME; conditions: Human liver microsomes
Method: (§1) The above compounds were diluted to a 1.5 μM intermediate working solution with 0.1 M potassium phosphate buffer containing 0.75 mg/mL liver microsomes, and then 30 μL of the intermediate working solution was dispensed into reaction plates for different time points (0, 5, 15, 30, 45, 60 min). 150 μL of methanol solution containing internal standard was added to the 0 min plate wells. For the other time points (5, 15, 30, 45, 60 min), the sample plates were pre-incubated at 37° C. for 5 min, after which the reaction was initiated with 15 μL of 6 mM NADPH solution and timing was started. 15 μL of 6 mM NADPH solution was added to the 0 min samples to balance the system. At 5 min, 15 min, 30 min, 45 min, and 60 min, respectively, 150 μL of methanol solution containing internal standard was added to the reaction wells to terminate the reaction. After the reaction was complete, the plates were shaken on a shaker at 600 rpm for 10 min, then centrifuged at 4000 rpm for 15 min. 80 μL of supernatant from each well was transferred to a 96-well sample plate containing 150 μL of ultrapure water, mixed, and then analyzed by LC/MS to calculate T1/2.

[2] = Liver microsomal stability study, rat; assay type: in vitro ADME; conditions: Rat liver microsomes
Method: as §1

[3] = Liver microsomal stability study, mouse; assay type: in vitro ADME; conditions: Mouse liver microsomes
Method: as §1

[4] = Mouse pharmacokinetic study; assay type: in vivo; conditions: BALB/c mice; for AUC(0-t) / Cmax / Tmax / half-life: female, mouse, plasma
Text: • (1) Study design: Female healthy Balb/c mice (specific pathogen-free (SPF) grade) were used as test animals, divided into 2 dose groups with 3 mice in each group, for single intravenous injection and single oral gavage administration, respectively. The vehicle formulations were […] (DMSO)+10% Solutol+85% Saline and 0.5% methylcellulose (MC), respectively. • (2) Plasma sample collection and processing: Blood was collected from the orbital venous plexus of the mice. After intravenous (IV) bolus administration, samples were collected at 0.083 h, 0.25 h, 0.5 h, 1 h, 2 h, 4 h, 8 h, and 24 h. After oral (PO) administration, samples were collected at 0.25 h, 0.5 h, 1 h, 2 h, 4 h, 6 h, 8 h, and 24 h. An appropriate volume of whole blood samples was collected with EDTA-K2 anticoagulation, placed on wet ice after collection, and plasma was separated by centrifugation within 30 min (centrifugation conditions: 4000 rpm, 10 minutes, 2-8° C.). The collected plasma samples were stored in a −70° C. freezer before analysis. After analysis, the remaining plasma samples continued to be stored in a −70° C. freezer. • (3) Analytical batch processing and pharmacokinetic parameter calculation: The concentration of the test substance in the plasma samples was determined. The accuracy of quality control samples was evaluated concurrently with the analysis of the samples, with the requirement that more than 66.7% of the quality control samples have an accuracy between 80-120%. Using the plasma concentration data at different time points, pharmacokinetic parameters such as C0 (IV), Area Under the Curve (AUC)(0-t), T1/2, Cmax, Tmax, and Mean Residence Time (MRT) were calculated using WinNonlin.

PARP2 = target: T2, PARP2 (Homo sapiens, UniProt Q9UGN5); assay: PARP2 inhibitory activity assay (BPS PARP2 Chemiluminescent Activity Assay Kit); assay type: biochemical
T2 construct: purchased BPS Bioscience
T2 sequence (Q9UGN5 whole entry): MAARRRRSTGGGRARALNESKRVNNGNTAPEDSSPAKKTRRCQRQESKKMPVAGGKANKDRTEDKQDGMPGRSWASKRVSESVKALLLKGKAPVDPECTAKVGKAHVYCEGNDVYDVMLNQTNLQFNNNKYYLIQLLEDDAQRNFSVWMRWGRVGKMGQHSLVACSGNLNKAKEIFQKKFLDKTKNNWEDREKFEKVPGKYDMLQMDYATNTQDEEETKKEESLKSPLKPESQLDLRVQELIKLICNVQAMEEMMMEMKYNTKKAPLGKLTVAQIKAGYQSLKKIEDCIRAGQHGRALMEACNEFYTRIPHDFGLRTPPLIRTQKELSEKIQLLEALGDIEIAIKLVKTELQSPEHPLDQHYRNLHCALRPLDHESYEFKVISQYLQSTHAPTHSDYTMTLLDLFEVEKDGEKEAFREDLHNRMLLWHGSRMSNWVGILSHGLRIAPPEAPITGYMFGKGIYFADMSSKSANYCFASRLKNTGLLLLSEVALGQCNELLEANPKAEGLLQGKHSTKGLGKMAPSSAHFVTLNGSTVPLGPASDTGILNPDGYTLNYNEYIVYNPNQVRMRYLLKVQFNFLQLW
Text: The PARP2 enzyme activity assay method used in the present disclosure employs reagents from the PARP2 Chemiluminescent Activity Assay Kit from BPS Bioscience, USA. […] The test results are shown in Table 1. /” indicates not tested.

Compound | IC50 (PARP7) [nM] | IC50 (PARP2) [nM] | further results
O=c1[nH]nc(CN[C@H]2C[C@H](C(=O)N3C4CCC3CN(c3ncc(C(F)(F)F)cn3)C4)C2)cc1C(F)(F)F [Embodiment 3] | 10 to 100 | – | half-life at 1 µM [1]: > 60 min; half-life at 1 µM [2]: > 60 min; half-life at 1 µM [3]: > 60 min
O=c1[nH]cc(CN[C@H]2C[C@H](C(=O)N3C4CCC3CN(c3ncc(C(F)(F)F)cn3)C4)C2)cc1C(F)(F)F [Embodiment 4] | 10 to 100 | – | half-life at 1 µM [1]: 30 to 60 min; half-life at 1 µM [2]: > 60 min; half-life at 1 µM [3]: > 60 min
O=C(C1CN(Cc2cc(C(F)(F)F)c(=O)[nH]n2)C1)N1CCN(c2ncc(C(F)(F)F)cn2)CC1 [Embodiment 5, 4-(trifluoromethyl)-6-((3-(4-(5-(trifluoromethyl)pyrimidin-2-yl)piperazine-1-carbonyl)azetidin-1-yl)methyl)pyridazin-3(2H)-one] | 10 to 100 | – | half-life at 1 µM [1]: > 60 min; half-life at 1 µM [2]: > 60 min; half-life at 1 µM [3]: > 60 min; F ([4]; PO, 10 mg/kg, 0.5% MC): 66.00%; AUC(0-t) ([4]; IV, 1 mg/kg): 7900 ng·h/mL; Cmax ([4]; IV, 1 mg/kg): 4210 ng/mL; Tmax ([4]; IV, 1 mg/kg): 4.8 min; half-life ([4]; IV, 1 mg/kg): 76.8 min; AUC(0-t) ([4]; PO, 10 mg/kg, 0.5% MC): 52100 ng·h/mL; Cmax ([4]; PO, 10 mg/kg, 0.5% MC): 22000 ng/mL; Tmax ([4]; PO, 10 mg/kg, 0.5% MC): 19.8 min; half-life ([4]; PO, 10 mg/kg, 0.5% MC): 58.8 min
O=c1[nH]cc(CN[C@H]2C[C@H](C(=O)N3CCN(c4ncc(C(F)(F)F)cn4)CC3)C2)cc1C(F)(F)F [Embodiment 13] | 10 to 100 | – | half-life at 1 µM [1]: 30 to 60 min; half-life at 1 µM [2]: > 60 min; half-life at 1 µM [3]: > 60 min
O=C(C1CN(Cc2c[nH]c(=O)c(C(F)(F)F)c2)C1)N1CCN(c2ncc(C(F)(F)F)cn2)CC1 [Embodiment 14] | 10 to 100 | – | half-life at 1 µM [1]: > 60 min; half-life at 1 µM [2]: > 60 min; half-life at 1 µM [3]: > 60 min
COc1cc(C(F)(F)F)cnc1N1CCN(C(=O)C2CN(Cc3cc(C(F)(F)F)c(=O)[nH]n3)C2)CC1 [Embodiment 46, 6-((3-(4-(3-methoxy-5-(trifluoromethyl)pyridin-2-yl)piperazine-1-carbonyl)azetidin-1-yl)methyl)-4-(trifluoromethyl)pyridazin-3(2H)-one] | < 10 | 10 to 100 | –
CC(C)(N[C@H]1C[C@H](C(=O)N2CCN(c3ncc(C(F)(F)F)cn3)CC2)C1)c1cc(C(F)(F)F)c(=O)[nH]n1 [Embodiment 48] | < 10 | 10 to 100 | –
Cc1cc(C(F)(F)F)cnc1N1CCN(C(=O)[C@H]2C[C@H](NCc3cc(C(F)(F)F)c(=O)[nH]n3)C2)CC1 [Embodiment 53] | 10 to 100 | – | –
O=C(C1CN(Cc2n[nH]c(=O)cc2C(F)(F)F)C1)N1CCN(c2ncc(C(F)(F)F)cn2)CC1 [Embodiment 54, 5-(trifluoromethyl)-6-((3-(4-(5-(trifluoromethyl)pyrimidin-2-yl)piperazine-1-carbonyl)azetidin-1-yl)methyl)pyridazin-3(2H)-one] | 100 to 1000 | – | –
O=c1cc(C(F)(F)F)c(CN[C@H]2C[C@H](C(=O)N3CCN(c4ncc(C(F)(F)F)cn4)CC3)C2)n[nH]1 [Embodiment 55] | 1000 to 10000 | – | –
O=c1[nH]nc(CN[C@H]2C[C@H](C(=O)N3CCN(c4ncc(C(F)(F)F)cc4C4CC4)CC3)C2)cc1C(F)(F)F [Embodiment 56] | 10 to 100 | – | –
COc1cc(N2CCN(C(=O)C3CN(Cc4cc(C(F)(F)F)c(=O)[nH]n4)C3)CC2)ncc1C(F)(F)F [Embodiment 57, 6-((3-(4-(4-methoxy-5-(trifluoromethyl)pyridin-2-yl)piperazine-1-carbonyl)azetidin-1-yl)methyl)-4-(trifluoromethyl)pyridazin-3(2H)-one] | < 10 | – | –
CCOc1cc(C(F)(F)F)cnc1N1CCN(C(=O)[C@H]2C[C@H](NC(C)(C)c3cc(C(F)(F)F)c(=O)[nH]n3)C2)CC1 [Embodiment 58] | 10 to 100 | – | –
COc1cc(C(F)(F)F)cnc1N1CCN(C(=O)[C@H]2C[C@H](NC(C)(C)c3cc(C(F)(F)F)c(=O)[nH]n3)C2)CC1 [Embodiment 59] | 10 to 100 | – | –
CC(C)(N[C@H]1C[C@H](C(=O)N2CCN(c3ncc(C(F)(F)F)cc3C(N)=O)CC2)C1)c1cc(C(F)(F)F)c(=O)[nH]n1 [Embodiment 60, 2-(4-((1R,3R)-3-((2-(6-oxo-5-(trifluoromethyl)-1,6-dihydropyridazin-3-yl)propan-2-yl)amino)cyclobutane-1-carbonyl)piperazin-1-yl)-5-(trifluoromethyl)nicotinamide] | < 10 | 100 to 1000 | –
NC(=O)c1cc(C(F)(F)F)cnc1N1CCN(C(=O)[C@H]2C[C@H](NCc3cc(C(F)(F)F)c(=O)[nH]n3)C2)CC1 [Embodiment 62, 2-(4-((1R,3R)-3-(((6-oxo-5-(trifluoromethyl)-1,6-dihydropyridazin-3-yl)methyl)amino)cyclobutane-1-carbonyl)piperazin-1-yl)-5-(trifluoromethyl)nicotinamide] | < 10 | 10 to 100 | –
CC(C)(N[C@H]1C[C@H](C(=O)N2CCN(c3ncc(C(F)(F)F)c4cc[nH]c34)CC2)C1)c1cc(C(F)(F)F)c(=O)[nH]n1 [Embodiment 64, 4-(trifluoromethyl)-6-(2-(((1R,3R)-3-(4-(4-(trifluoromethyl)-1H-pyrrolo[2,3-c]pyridin-7-yl)piperazine-1-carbonyl)cyclobutyl)amino)propan-2-yl)pyridazin-3(2H)-one] | < 10 | 100 to 1000 | –
Cn1ccc2c(C(F)(F)F)cnc(N3CCN(C(=O)[C@H]4C[C@H](NC(C)(C)c5cc(C(F)(F)F)c(=O)[nH]n5)C4)CC3)c21 [Embodiment 65, 6-(2-(((1R,3R)-3-(4-(1-methyl-4-(trifluoromethyl)-1H-pyrrolo[2,3-c]pyridin-7-yl)piperazine-1-carbonyl)cyclobutyl)amino)propan-2-yl)-4-(trifluoromethyl)pyridazin-3(2H)-one] | – | 100 to 1000 | –
CC(C)(N[C@H]1C[C@H](C(=O)N2CCN(c3ncc(C(F)(F)F)cc3C(=O)N3CCCC3)CC2)C1)c1cc(C(F)(F)F)c(=O)[nH]n1 [Embodiment 66] | 10 to 100 | – | –
CNC(=O)c1cc(C(F)(F)F)cnc1N1CCN(C(=O)[C@H]2C[C@H](NC(C)(C)c3cc(C(F)(F)F)c(=O)[nH]n3)C2)CC1 [Embodiment 67, N-methyl-2-(4-((1R,3R)-3-((2-(6-oxo-5-(trifluoromethyl)-1,6-dihydropyridazin-3-yl)propan-2-yl)amino)cyclobutane-1-carbonyl)piperazin-1-yl)-5-(trifluoromethyl)nicotinamide] | < 10 | 100 to 1000 | –
Cc1cc2c(C(F)(F)F)cnc(N3CCN(C(=O)[C@H]4C[C@H](NC(C)(C)c5cc(C(F)(F)F)c(=O)[nH]n5)C4)CC3)c2[nH]1 [Embodiment 68, 6-(2-(((1R,3R)-3-(4-(2-methyl-4-(trifluoromethyl)-1H-pyrrolo[2,3-c]pyridin-7-yl)piperazine-1-carbonyl)cyclobutyl)amino)propan-2-yl)-4-(trifluoromethyl)pyridazin-3(2H)-one] | < 10 | – | –

From US20260200942A1, “PARP7 INHIBITORS AND THEIR APPLICATIONS” (CHONGQING PHARSCIN INNOBIO CO., LTD., priority 2023, published 2026)
